Measurements reported in patent US20070253994A1, “Intraspinal Drug Delivery Methods and Devices To Alleviate Chronic Pelvic Pain” (Medtronic, Inc., priority 2006, published 2007).
“Also recorded” adds a separate entry of the source. Structures can show the parent of a compound that is named as a salt.

Legend:
[1] = tested on: patients with chronic nonbacterial prostatitis; conditions: typically orally administered; cited from earlier work
[2] = tested on: micturition reflex of female rats; assay: micturition reflex (cystometrogram) of female rats in the interstitial cystitis (IC) model of visceral pain, acetic acid bladder infusion; assay type: in vivo, rat; conditions: for frequency of acetic-acid-induced contractions compared with rate during saline infusion, both doses: both doses of Table 1
[3] = female rats, acetic acid infusion, intrathecal, doses of Table 1
[4] = urethane-anesthetized female rats, 0.5% acetic acid bladder infusion, intrathecal, two ascending doses (Table 1)

## pentosan polysulfate
[1]
  patients for whom treatment proved successful: approximately 40%

## NCC1(CC(=O)O)CCCCC1 [Gabapentin]
[2]; rat, in vivo
  amplitude of bladder contractions: Neither of these drugs suppressed the amplitude of bladder contractions
  frequency of acetic-acid-induced bladder contractions compared with frequency during saline infusion, higher dose: reduced the frequency of acetic-acid-induced bladder contractions to a level comparable to the normal frequency of contraction seen with saline infusion
  micturition reflex frequency: suppressed micturition reflex frequency in a dose-dependent fashion
  micturition reflex frequency at the higher dose: effective at reducing the reflex frequency
  micturition reflex frequency at the lower dose: not at the lower dose

## NCC(CC(=O)O)c1ccc(Cl)cc1 (stereo not drawn) [Baclofen]
[2]; [3]
  amplitude of bladder contractions: Neither baclofen nor ketorolac reduced the amplitude of bladder contraction
[2]; female rats, intrathecal
  frequency of acetic-acid-induced contractions compared with rate during saline infusion, both doses: reduced the acetic-acid-induced contraction frequency in a dose-dependent manner without suppressing it below the normal rate of contraction observed with saline infusion
[2]; [4]
  micturition reflex frequency: statistically significant only at the higher dose
[2]; urethane-anesthetized female rats, 0.5% acetic acid bladder infusion, intrathecal, two ascending doses (Table 1), listed as baclofen
  micturition reflex frequency: suppressed micturition reflex frequency in a dose-dependent fashion

## O=C(c1ccccc1)c1ccc2n1CCC2C(=O)O (stereo not drawn) [Ketorolac, Ketorolac tris]
[2]; 10 rats, intrathecal, lower dose (100 μg per Table 1)
  rats exhibiting a lower reflex frequency, lower dose: 8 of 10
[2]; [3]
  amplitude of bladder contractions: Neither baclofen nor ketorolac reduced the amplitude of bladder contraction
[2]; female rats, intrathecal
  frequency of acetic-acid-induced contractions compared with rate during saline infusion, both doses: reduced the acetic-acid-induced contraction frequency in a dose-dependent manner without suppressing it below the normal rate of contraction observed with saline infusion
[2]; ten rats tested, intrathecal, high dose (500 μg per Table 1)
  rats in which reflex frequency was reduced, high dose: each of the ten rats tested
[2]; [4]
  micturition reflex frequency: suppressed micturition reflex frequency in a dose-dependent fashion

## Clc1cccc(Cl)c1N=C1NCCN1 [Clonidine, Clonidine HCl]
[2]; [4]
  micturition reflex frequency: no measurable effect

## CNCCCN1c2ccccc2CCc2ccccc21 [Desipramine, Desipramine HCl]
[2]; [3]
  amplitude of bladder contractions: Neither of these drugs suppressed the amplitude of bladder contractions
[2]; female rats, acetic acid infusion, intrathecal, higher dose of Table 1
  micturition reflex frequency at the higher dose: effective at reducing the reflex frequency
[2]; female rats, acetic acid infusion, intrathecal, lower dose of Table 1
  micturition reflex frequency at the lower dose: not at the lower dose
[2]; female rats, intrathecal, higher dose of Table 1
  frequency of acetic-acid-induced bladder contractions compared with frequency during saline infusion, higher dose: reduced the frequency of acetic-acid-induced bladder contractions to a level comparable to the normal frequency of contraction seen with saline infusion
[2]; [4]
  micturition reflex frequency: suppressed micturition reflex frequency in a dose-dependent fashion

## CCCCN1CCCCC1C(=O)Nc1c(C)cccc1C (stereo not drawn) [Bupivacaine, Bupivacaine HCl]
[2]; [3]
  amplitude of bladder contractions: no effect on the amplitude of contraction
[2]; female rats, intrathecal
  frequency of acetic-acid-induced contractions compared with rate during saline infusion, both doses: reduced the frequency of acetic-acid-induced contractions below the rate observed during saline infusion
[2]; urethane-anesthetized female rats, 0.5% acetic acid bladder infusion, intrathecal, two ascending doses (Table 1), HCl
  micturition reflex frequency: suppressed micturition reflex frequency in a dose-dependent fashion; also recorded: appeared to suppress the micturition frequency at both doses
